In the supplement of paper PMC10307832:

Assays:
Assay in all cases: relative viability (nuclei count vs DMSO), 5 days (fraction); higher = more cells survive
[1] = compound: CC1(C)CNc2cc(NC(=O)c3cccnc3NCc3ccncc3)ccc21 [Motesanib] + Nc1ncn([C@H]2C[C@H](O)[C@@H](CO)O2)c(=O)n1 [Decitabine] (partner 2 µM)
Summary of the method: (§1)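 For relative viability, nuclei counts in treated wells were divided by those in vehicle wells. Lung cancer cell lines had been pin-tool dosed in 1536-well plates the day after seeding and cultured for 5 days, then fixed and stained in one step (final 0.05% Triton X-100, 1% formaldehyde, 1 ug/ml Hoechst) and imaged at 4×. Doses were one drug alone or a fixed anchor-drug dose plus five library-drug doses (not always all listed) in √10 steps, and values are duplicate-plate medians.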

[2] = compound: CC1(C)CNc2cc(NC(=O)c3cccnc3NCc3ccncc3)ccc21 [Motesanib] + O=C(CCCCCCC(=O)Nc1ccccc1)NO [Vorinostat] (partner 1 µM)
Summary of the method: as §1

[3] = compound: C[C@@]1(C(=O)Nc2ccc(F)nc2)CCCN1c1nc(Nc2cc(C3CC3)n[nH]2)c2cccn2n1 + CS(=O)(=O)CCNCc1ccc(-c2ccc3ncnc(Nc4ccc(OCc5cccc(F)c5)c(Cl)c4)c3c2)o1 [Lapatinib] (partner 2 µM)
Summary of the method: as §1

[4] = compound: C[C@@]1(C(=O)Nc2ccc(F)nc2)CCCN1c1nc(Nc2cc(C3CC3)n[nH]2)c2cccn2n1 + Cc1nc(NC(=O)N2CCC[C@H]2C(N)=O)sc1-c1ccnc(C(C)(C)C(F)(F)F)c1 [Alpelisib] (partner 2 µM)
Summary of the method: as §1

| Cell Line | relative viability ([1]; first compound 0.01 µM) | relative viability ([1]; first compound 0.03162 µM) | relative viability ([1]; first compound 0.1 µM) | relative viability ([1]; first compound 0.3162 µM) | relative viability ([1]; first compound 1 µM) | relative viability ([2]; first compound 0.01 µM) | relative viability ([2]; first compound 0.03162 µM) | relative viability ([2]; first compound 0.1 µM) | relative viability ([2]; first compound 0.3162 µM) | relative viability ([2]; first compound 1 µM) | relative viability ([3]; first compound 0.04 µM) | relative viability ([3]; first compound 0.1265 µM) | relative viability ([3]; first compound 0.4 µM) | relative viability ([3]; first compound 1.265 µM) | relative viability ([4]; first compound 0.04 µM) | relative viability ([4]; first compound 0.1265 µM) | relative viability ([4]; first compound 0.4 µM) | relative viability ([4]; first compound 1.265 µM) |
| --- | --- | --- | --- | --- | --- | --- | --- | --- | --- | --- | --- | --- | --- | --- | --- | --- | --- | --- |
| 201T | 0.84 | 0.864 | 0.925 | 0.939 | 0.93 | 0.929 | 0.974 | 1.08 | 1.01 | 1.01 | 1.05 | 0.91 | 0.717 | 0.862 | 0.893 | 0.836 | 0.767 | 0.942 |
| A549 | 0.261 | 0.216 | 0.327 | 0.278 | 0.338 |  |  |  |  |  | 0.648 | 0.477 | 0.348 | 0.103 | 0.638 | 0.392 | 0.333 | 0.35 |
| A-427 | 0.563 | 0.554 | 0.544 | 0.568 | 0.556 | 0.96 | 0.87 | 0.913 | 0.89 | 0.88 | 1.04 | 0.934 | 1.09 | 1.08 | 1.08 | 1.09 | 1.03 | 1.16 |
| ABC-1 | 0.825 | 1.03 | 1.02 | 0.931 | 1.26 | 0.786 | 1.22 | 0.939 | 1.24 | 1.06 | 1.14 | 1.59 | 0.752 | 0.633 | 0.875 | 0.845 | 0.659 | 0.945 |
| BEN | 0.599 | 0.788 | 0.779 | 0.693 | 0.867 | 0.543 | 0.56 | 0.637 | 0.654 | 0.772 | 0.712 | 0.729 | 0.765 | 0.698 | 1.16 | 1.37 | 0.929 | 1.16 |
| CAL-12T |  |  |  |  |  | 0.797 | 0.847 | 0.692 | 0.795 | 0.86 | 0.8 | 0.442 | 0.564 | 0.555 | 1.16 | 1.14 | 0.762 | 0.953 |
| COR-L23 | 0.477 | 0.456 | 0.491 | 0.468 | 0.519 | 0.45 | 0.387 | 0.53 | 0.44 | 0.459 | 1.12 | 0.957 | 0.994 | 0.423 | 0.721 | 0.711 | 0.563 | 0.412 |
| COR-L 105 | 0.643 | 0.683 | 0.72 | 0.739 | 0.705 | 0.861 | 0.866 | 0.81 | 1.03 | 0.819 | 0.344 | 0.324 | 0.28 | 0.233 | 0.871 | 0.805 | 0.689 | 0.806 |
| Calu-6 |  |  |  |  |  |  |  |  |  |  | 1.14 | 1.08 | 0.95 | 0.693 | 1.05 | 0.932 | 0.888 | 0.455 |
| ChaGo-K-1 | 0.506 | 0.556 | 0.544 | 0.661 | 0.607 | 0.745 | 0.764 | 0.745 | 0.818 | 0.748 |  |  |  |  |  |  |  |  |
| EBC-1 |  |  |  |  |  |  |  |  |  |  | 0.208 | 0.19 | 0.239 | 0.205 | 1.04 | 0.608 | 0.642 | 0.431 |
| EKVX | 0.385 | 0.404 | 0.427 | 0.401 | 0.32 | 0.777 | 0.819 | 0.777 | 0.895 | 0.867 | 0.184 | 0.162 | 0.137 | 0.133 | 0.837 | 0.672 | 0.581 | 0.666 |
| EMC-BAC-2 | 0.956 | 0.979 | 1.01 | 0.984 | 1.04 | 0.408 | 0.475 | 0.426 | 0.417 | 0.43 | 0.856 | 0.671 | 0.572 | 0.622 | 0.634 | 0.664 | 0.613 | 0.818 |
| EPLC-272H | 0.37 | 0.371 | 0.387 | 0.335 | 0.402 | 0.385 | 0.518 | 0.448 | 0.479 | 0.477 | 0.885 | 0.668 | 0.601 | 0.72 | 1.03 | 0.876 | 0.719 | 1.1 |
| H3255 | 0.561 | 0.651 | 0.605 | 0.623 | 0.678 | 0.694 | 0.88 | 0.661 | 0.893 | 0.773 | 0.243 | 0.291 | 0.226 | 0.155 | 0.713 | 0.771 | 0.514 | 0.699 |
| HARA | 0.492 | 0.878 | 0.905 | 1.06 | 1.05 | 0.573 | 0.706 | 0.538 | 0.638 | 0.565 | 0.409 | 0.466 | 0.248 | 0.244 | 0.73 | 0.681 | 0.569 | 0.697 |
| HCC-15 | 0.592 | 0.621 | 0.648 | 0.81 | 0.69 | 0.883 | 0.843 | 0.866 | 0.875 | 0.877 | 0.839 | 0.743 | 0.746 | 0.739 | 0.896 | 0.757 | 0.829 | 0.937 |
